Laboratory results reported in patent US10363231B2, “Compounds and methods of treating ocular disorders” (CASE WESTERN RESERVE UNIVERSITY, priority 2014, dated 2019).

Assays:
LRAT = target: T1, LRAT (Bos taurus, UniProt Q9BGL2); assay: LRAT activity assay with bovine RPE microsomes (esterification of the corresponding primary alcohols); assay type: biochemical; details: percentage of the corresponding primary alcohol esterified by LRAT in 1 h at 37° C; 10 μM; RPE microsomes
T1 construct: incubated with RPF microsomes that served as a source of LRAT enzymatic activity; from tissue; host or cells: bovine retinal pigment epithelium (RPE) microsomes
T1 sequence (Q9BGL2 1-230): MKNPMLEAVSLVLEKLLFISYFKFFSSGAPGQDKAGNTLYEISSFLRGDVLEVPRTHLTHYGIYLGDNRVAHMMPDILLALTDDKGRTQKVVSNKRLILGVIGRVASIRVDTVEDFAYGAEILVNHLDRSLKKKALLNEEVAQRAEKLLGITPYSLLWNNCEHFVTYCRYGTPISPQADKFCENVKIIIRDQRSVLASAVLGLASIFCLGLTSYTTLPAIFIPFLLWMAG
Description: (§1) Bovine RPE microsomes were isolated from RPE homogenates by differential centrifugation as previously described. The resulting microsomal precipitate was resuspended in 10 mM Bis-Tris propane/HCl buffer, pH 7.4, to achieve a total protein concentration of […]. Then the mixture was placed in a quartz cuvette and irradiated for 6 min at 4° C. with a ChromatoUVE transilluminator (model TM-15; UVP) to eliminate residual retinoids. After irradiation, DTT was added to the RPE microsomal mixture to achieve a final concentration of 5 mM.
Two μl of a synthesized primary alcohol or amine dissolved in DMF (final concentration 10 μM) and 2 μl of 1,2-diheptanoyl-sn-glicerol-3-phosphocholine (water, final concentration 1 mM) were added to 200 μl of 10 mM Bis-Tris propane/HCl buffer, pH 7.4, containing 150 μg of RPE microsomes and 1% (v/w) BSA. The resulting mixture was incubated at 37° C. for 1 h. The reaction was quenched by adding 300 μl of methanol. Most reaction products were extracted with 300 μl of hexanes, except for products from the QEA-C-006 and QEA-G groups which were extracted by adding 300 μl of ethyl acetate and 300 μl of water.
Reaction products were separated and quantified by normal phase HPLC (Agilent Sil 5 μm, 4.6 mm×250 mm) in stepwise gradient of ethyl acetate in hexanes (0-15 min, 10%; 20-30 min, 30%) at a flow rate of 1.4 ml·min^−1.
The properties of retinoid derivatives were examined by two standard enzymatic tests, the […] and retinoid isomerization assays. To identify substrates of LRAT, aldehydes were reduced by sodium borohydrate to their corresponding primary alcohols that then were directly used in the esterification assay (FIG. 2B).
The alcohols were incubated with RPF microsomes that served as a source of LRAT enzymatic activity. Products of the enzymatic reaction as well as the remaining substrates were extracted with organic solvents and analyzed by HPLC. The ratio between a substrate and its esterified form was used to measure enzymatic activity efficiency, based on equivalent UV absorption of the substrate and product at their specific UV maxim wavelengths. Compounds classified as ‘good’ LRAT substrates converted at least 50% of their available alcohol substrates into corresponding esters under these experimental conditions, whereas marginal LRAT substrates were converted at less than 5%. Alcohols with a 5-50% conversion ratio were classified as weak substrates. Among 35 tested compounds, 23 were categorized as good and 9 as weak substrates; 3 compounds were not esterified by LRAT (Table 1 and FIG. 2C). […] Moreover, breaking double bond conjugation along the polyene chain or deletion of a C9 and/or a C13 methyl group also was allowed.

RPE65 = target: T2, RPE65 (Bos taurus, UniProt Q28175); assay: Retinoid isomerase activity assay (11-cis-retinol production in RPE microsomes); assay type: biochemical, Bovine; details: for IC50: primary amine, decline in 11-cis-retinol production in RPE microsomes, read-out: Inhibition of RPE65
T2 construct: from tissue; host or cells: bovine retinal pigment epithelium (RPE) microsomes
Description: as §1
[…] The resulting mixture was pre incubated at room temperature for 5 min. Then 1 μl of all-trans-retinol (in DMF, final concentration 20 μM) was added. The resulting mixture was incubated at 37° C. for 15 min to 2 h. The reaction was quenched by adding 300 μl of methanol, and products were extracted with 300 μl of hexanes. Production of 11-cis-retinol was quantified by normal phase HPLC with 10% (v/v) ethyl acetate in hexanes as the eluent at a flow rate of 1.4 ml·min^−1. Retinoids were detected by monitoring their absorbance at 325 nm and quantified based on a standard curve representing the relationship between the amount of 11-cis-retinol and the area under the corresponding chromatographic peak.
Primary amines of compounds derived from the aldehydes were subsequently tested for their ability to inhibit the RPE65-dependent retinoid isomerization reaction in dose- and time dependent reactions as exemplified by QEB-B-001 (FIG. 3B). Amines were incubated with RPE microsomes in the presence of all-trans-retinol and the 11-cis-retinoid binding protein, CRALBP.
Progress of the enzymatic reaction was monitored by HPLC separation of retinoids and quantification of 11-cis-retinol with a decrease of 11-cis-retinol production reflecting inhibition of RPE65 by a tested amine. […] This moderate inhibition could be enhanced by shortening the polyene chain length (TEA amines) or diminished by introducing an extra positive charge into the tested compounds (QEA-G amines).

Abca4^−/−Rdh8^−/− mice = assay: Toxicity in treated Abca4−/−Rdh8−/− mice (Table 2); assay type: in vivo; details: 4-week-old Abca4−/−Rdh8−/− mice, oral gavage
Description: (§2) Abca4^−/−Rdh8^−/− double knockout mice were generated as previously described. Mice were housed in the animal facility at the School of Medicine, Case Western Reserve University, where they were maintained under either complete darkness or in a 12-h light (˜300 lux) and 12-h dark cycle. All tested primary amines were suspended in 100 μl of soybean oil with less than 10% (v/v) DMSO and were administered by oral gavage with a 22-gauge feeding needle. Experimental manipulations in the dark were done under dim red light transmitted through a Kodak No. 1 safelight filter (transmittance >560 nm). All animal procedures and experiments were approved by the Case Western Reserve University Animal Care Committees and conformed to recommendations of the American Veterinary Medical Association Panel on Euthanasia and the Association of Research for Vision and Ophthalmology.
(§3) For practical reasons, only eight of these leading compounds (QEA-B-001-NH2, B-002-NH2, C-001-NH2, C-003-NH2, C006-NH2, E-002-NH2, TEA-B-002-NH2, and C00-2-NH2) along with retinylamine as a control were selected for further testing in Abca4^−/−Rdh8^−/− mice, an animal model for light-induced retinal degeneration (Table 2). Additionally, two novel amines with moderate inhibition of RPE65 (QEA-A-006-NH2 and QEA-B-003-NI 12) and one with strong inhibition (QEA-A-005-NH2) were added to the first test group for comparison. Mice were gavaged with 1 mg of a test compound and then kept in the dark for 24 h prior to being exposed to bright light (˜10,000 lux) for 1 h. Retinal damage was assessed with OCT that measured the thickness of the outer nuclear layer and by quantification of tissue 11-cis retinal levels. An example is shown for imaging results in FIG. 4A and for 11-cis-retinal quantification in FIG. 4B. Additionally, extracts of livers obtained from treated mice were analyzed by HPLC to estimate the amounts of corresponding amides (FIG. 4C).

[1] = Analysis of retinoid composition in mouse tissues: amide forms in liver by HPLC; assay type: in vivo, mice; details: oral gavage; for Protection by amide in liver: 4-week-old Abca4−/−Rdh8−/− mice, dark 24 h, liver extracts by HPLC; for amidation in vivo (accumulation of amide forms in mouse liver): liver HPLC
Description: as §2
Two mg of primary amines were administered by oral gavage to 4-week-old Abca4^−/−Rdh8^−/− mice, which then were kept in the dark for 24 h. Then mice were euthanized, and their livers were homogenized in 1 ml of 10 mM sodium phosphate buffer, pH 7.4, containing 50% methanol (v/v). The resulting mixture was extracted with 4 ml of hexanes. Extracts were dried in vacuo, and reconstituted in 300 μl of hexanes. 100 μl of this solution was analyzed by HPLC as described above for the LRAT activity assay.
as §3

T2 sequence (Q28175 whole entry): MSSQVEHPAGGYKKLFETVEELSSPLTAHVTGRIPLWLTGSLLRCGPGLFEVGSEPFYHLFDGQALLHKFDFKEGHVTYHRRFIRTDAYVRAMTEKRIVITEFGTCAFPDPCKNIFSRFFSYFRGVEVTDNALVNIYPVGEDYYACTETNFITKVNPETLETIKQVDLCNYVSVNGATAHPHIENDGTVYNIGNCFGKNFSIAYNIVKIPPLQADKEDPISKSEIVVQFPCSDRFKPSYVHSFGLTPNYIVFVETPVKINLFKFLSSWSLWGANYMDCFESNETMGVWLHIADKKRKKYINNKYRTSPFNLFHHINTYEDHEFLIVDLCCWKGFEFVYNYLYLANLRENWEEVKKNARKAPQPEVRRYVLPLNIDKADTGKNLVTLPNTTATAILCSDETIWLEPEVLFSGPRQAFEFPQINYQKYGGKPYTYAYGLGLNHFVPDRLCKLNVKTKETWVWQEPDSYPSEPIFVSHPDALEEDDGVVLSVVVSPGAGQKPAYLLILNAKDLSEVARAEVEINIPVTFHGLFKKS

Row | Structure (SMILES) | LRAT Substrate (LRAT) | IC50 (RPE65) | Toxicity (Abca4^−/−Rdh8^−/− mice) | Protection by amide in liver [1] | amidation in vivo (accumulation of amide forms in mouse liver) [1] | inhibition of RPE65 (RPE65)
1 | CC(/C=C/C1=CCCCC1)=C\C=C\C(C)=C\CN [QEA-A-006-NH2] | 100% | 10 to 100 µM | None | None | not efficiently amidated | 
2 | CC1=C(/C=C/C(=C/C=C/C(C)=C/CN)C(C)(C)C)CCCC1 [QEA-B-002-NH2] | 30% | > 200 µM | None | None | not efficiently amidated | did not inhibit
3 | CC1=C(/C=C/C(=C/C=C/C(C)=C/CN)C(C)(C)C)C(C)(C)CCC1 [QEA-B-003-NH2] | 100% | 10 to 100 µM | None | Weak | not efficiently amidated | 
4 | CC(C)(C)C(=C\CN)/C=C/C=C(/C=C/C1=CCCCC1)C(C)(C)C [QEA-B-005-NH2] | 0% |  |  |  |  | 
5 | CC(/C=C/C=C(/C=C/c1ccccc1)C(C)(C)C)=C\CN [QEA-C-001-NH2] | 50% | > 200 µM | Yes | Strong | efficiently converted into amides | did not inhibit
6 | CC(/C=C/C=C(/C=C/c1ccc2c(c1)CCCC2)C(C)(C)C)=C\CN [QEA-C-002-NH2] | 15% | > 200 µM |  |  |  | 
7 | CC(/C=C/C=C(/C=C/c1ccc(C(F)(F)F)cc1)c1ccccc1)=C\CN [QEA-C-003-NH2] | 100% | > 200 µM | Yes | None | not efficiently amidated | did not inhibit
8 | CC(/C=C/C=C(/C=C/c1ccc(Cl)cc1)c1ccccc1)=C\CN [QEA-C-004-NH2] | 100% | > 200 µM |  |  |  | 
9 | COc1ccc(C(=C\C=C\C(C)=C\CN)/C=C/c2ccc([N+](=O)[O-])cc2)cc1 [QEA-C-005-NH2] | 100% | > 200 µM |  |  |  | 
10 | CC(/C=C/C=C1/C=C(C2=CCCCC2)CCC1)=C\CN [QEA-D-001-NH2] | 100% | > 200 µM |  |  |  | 
11 | CC(/C=C/C=C1/C=C(C2=COCCC2)CCC1)=C\CN [QEA-D-002-NH2] | 100% | > 200 µM |  |  |  | 
12 | CC(/C=C/C=C(/C=C/C1=CCCCC1)c1ccccc1)=C\CN [QEA-E-001-NH2] | 100% | > 200 µM |  |  |  | 
13 | CC(/C=C/C=C1/C=C(c2cccnc2)CCC1)=C\CN [QEA-G-001-NH2] | 100% | 10 to 100 µM |  |  |  | 
14 | COc1ccc(C(=C\C=C\C(C)=C\CN)/C=C/c2cccnc2)cc1 [QEA-G-002-NH2] | 100% | 10 to 100 µM |  |  |  | 
15 | CC1=C(/C=C/C(=C/C=C/CN)C(C)(C)C)CCCC1 [TEA-B-003-NH2] | 20% | > 200 µM |  |  |  | 
16 | NC/C=C/C=C(/C=C/C1=CCCCC1)c1ccccc1 [TEA-B-004-NH2] | 30% | > 200 µM |  |  |  | 
17 | CC(C)(C)C(=C\C=C\CN)/C=C/c1ccc2c(c1)CCCC2 [TEA-C-001-NH2] | 0% |  |  |  |  | 

Continued, in another order:

Row | LRAT Substrate (LRAT) | IC50 (RPE65) | Structure (SMILES) | Toxicity (Abca4^−/−Rdh8^−/− mice) | Protection by amide in liver [1] | amidation in vivo (accumulation of amide forms in mouse liver) [1] | inhibition of RPE65 (RPE65)
18 | 100% | < 10 µM | CC1=C(/C=C/C(C)=C/C=C/C(C)=C/C=C/CN)C(C)(C)CCC1 [PEA-A-001-NH2] |  |  |  | 
19 | 90% | < 10 µM | CC1=C(/C=C/C(C)=C/C=C/C(C)=C/C=C/CN)C(C)(C)CCC1O (stereo not shown) [PEA-A-002-NH2] |  |  |  | 
20 | 90% | < 10 µM | CC1=C(/C=C/C(C)=C/C=C/C(C)=C/C=C/CN)C(C)(C)CC(O)C1 (stereo not shown) [PEA-A-003-NH2] |  |  |  | 
21 | 100% | < 10 µM | CC1=C(/C=C/C(C)=C/C=C/C(C)=C/CN)C(C)(C)CCC1O (stereo not shown) [QEA-A-002-NH2] |  |  |  | 
22 | 100% | < 10 µM | CC1=C(/C=C/C(C)=C/C=C/C(C)=C/CN)C(C)(C)CC(O)C1 (stereo not shown) [QEA-A-003-NH2] |  |  |  | 
23 | 100% | < 10 µM | CC1=C(/C=C/C(C)=C/C=C/C=C/CN)C(C)(C)CCC1 [QEA-A-004-NH2] |  |  |  | 
24 | 0% |  | CC1=C(/C=C/C(=C/C=C/C(=C/CN)C(C)(C)C)C(C)(C)C)C(C)(C)CCC1 [QEA-B-004-NH2] |  |  |  | 
25 | 100% | < 10 µM | CC1=C(/C=C/C(C)=C/C=C/CN)C(C)(C)CCC1 [TEA-A-001-NH2] |  |  |  | 
26 | 100% | < 10 µM | CC1=C(/C=C/C(C)=C/C=C/CN)C(C)(C)CC=C1 [TEA-A-002-NH2] |  |  |  | 
27 | 90% | < 10 µM | CC1=C(/C=C/C(C)=C/C=C/CN)C(C)(C)CC(O)C1 (stereo not shown) [TEA-A-003-NH2] |  |  |  | 
28 | 90% | < 10 µM | CC1=C(/C=C/C(C)=C/C=C/CN)C(C)(C)CCC1O (stereo not shown) [TEA-A-004-NH2] |  |  |  | 
29 | 100% | > 200 µM | CC1=C(/C=C/C(=C/C=C/CN)C(C)(C)C)C(C)(C)CCC1 [TEA-B-001-NH2] |  |  |  | 
